Data on 1 molecule can be found in ChEMBL document CHEMBL3727359, “Methods and compositions for treating or preventing pruritis” (2012).

Each structure is given as a SMILES string.

For assay [1], the target named is T1, Mas-related G-protein coupled receptor member X1 (Homo sapiens, UniProt Q96LB2). Description: Antagonist activity at MrgX1 in mouse or rat DRG neurons assessed as intracellular Ca2+ level by FLIPR assay. It counts as functional, cell-based.
Assay [2] deals with T1, Mas-related G-protein coupled receptor member X1. Description: Antagonist activity at MrgX1 in mouse or rat DRG neurons assessed as action potential by whole-cell patch clamp method. It counts as functional. (Patch clamp records ionic current or voltage across a cell membrane.)

T1 sequence (Q96LB2 whole entry, looked up): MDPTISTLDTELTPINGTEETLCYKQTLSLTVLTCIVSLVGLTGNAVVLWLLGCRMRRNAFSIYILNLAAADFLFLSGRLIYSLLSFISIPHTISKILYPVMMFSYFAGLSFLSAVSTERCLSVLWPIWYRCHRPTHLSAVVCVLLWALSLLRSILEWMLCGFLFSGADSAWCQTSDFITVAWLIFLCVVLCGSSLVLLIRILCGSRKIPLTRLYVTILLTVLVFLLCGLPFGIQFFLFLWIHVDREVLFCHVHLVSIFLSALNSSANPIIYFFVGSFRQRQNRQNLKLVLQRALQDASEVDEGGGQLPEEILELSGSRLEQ

For orientation: IC50 means the concentration that gives 50% inhibition. In the case of `N#Cc1ccc(COC2C3CCN(CC3)C2C(c2ccccc2)c2ccccc2)cc1` (configuration not stated), the values for the IC50 in assay [1] and in assay [2] were 0.632 µM and 5.6 µM, respectively.
